Assay results: patent publication US12297175B2, “Physics-driven discovery of novel small therapeutic compounds for use as a BCL-2 inhibitor” (BAHCESEHIR UNIVERSITESI, priority 2020, dated 2025)

Tested on: HCT-116 cell lines
Test: MTT cell proliferation assay
Assay type: cell-based
Method: For cell culture experiments various cancer cell lines, HCT-116 colon cancer, U87-MG glial tumor, MCF7 breast cancer cell lines were used. Cells were seeded with high glucose DMEM medium (Biosera) supplemented with 10% FBS (Gibco) and 1× penicillin/streptomycin (Multicell). Twenty-four hours prior to molecule treatment, 10,000 cells were seeded into each well of 24-well cell culture plates. Molecules were used by preparing 4 mM stock solution in DMSO (Amresco). For molecule treatment, molecule stock solutions were diluted in DMEM with 10% FBS and added onto cells in each corresponding well. Final concentration of vehicle DMSO was 2% at maximum. […] We calculated the number of cells to be seeded to make sure that none of the cells reaches more than 60% confluency during the treatment period, as higher plate confluency levels would slow down cell proliferation independently from the molecule treatment.
Values of half-maximal inhibitory concentration were (IC50) determined by MTT cell proliferation assays. […] 570 nm absorbance values were recorded and IC50 values were calculated by dose response—inhibition curves and nonlinear regression analysis on GraphPad Prism 8 software. […] Following the initial incubation day, molecules were added and after incubation with MTT at 37° C. for 4 hours, formazan was solubilized with DMSO (Sigma-Aldrich, St. Louis, USA) and absorbance was measured at 570 nm. […]

IC50 (Homo sapiens, 72 h, HCT-116 colon cancer cells, single treatment, three days results, 570 nm absorbance, read-out: IC50 value (half-maximal inhibitory concentration)): 24 µM
Compound: Cc1ccc(C2CC(=O)N=C(SCC(=O)Nc3ccc(Br)cc3Cl)C2C#N)cc1 (centres unmarked) [compound of formula I]
cell proliferation compared with vehicle group (FIG. 1) (HCT-116 cells, cell viability over time vs vehicle (max 2% DMSO)): reduced proliferation and apoptotic cell structures
